From ChEMBL document CHEMBL1135807, “2,5'-Disubstituted adenosine derivatives: evaluation of selectivity and efficacy for the adenosine A(1), A(2A), and A(3) receptor” (J Med Chem, 2002) come the findings set out here.

Assay [1] has as its target Adenosine receptor A2a (Homo sapiens, UniProt P29274). Kind of assay: G-protein activation in human Adenosine A2A receptor expressed in CHO cells using cAMP assay. The format is functional, cell-based. In general terms: Cyclic AMP is a second messenger, typically raised through Gs and lowered through Gi signalling.
Assay [2] concerns the target Adenosine receptor A2a (Rattus norvegicus, UniProt P30543).
Description: Binding affinity at Adenosine A2A receptor in rat striatal membrane by [3H]ZM-241385 displacement.
The next assay has as its target T1, Adenosine receptor A1 (Rattus norvegicus, UniProt P25099).
T1 sequence (P25099 whole entry): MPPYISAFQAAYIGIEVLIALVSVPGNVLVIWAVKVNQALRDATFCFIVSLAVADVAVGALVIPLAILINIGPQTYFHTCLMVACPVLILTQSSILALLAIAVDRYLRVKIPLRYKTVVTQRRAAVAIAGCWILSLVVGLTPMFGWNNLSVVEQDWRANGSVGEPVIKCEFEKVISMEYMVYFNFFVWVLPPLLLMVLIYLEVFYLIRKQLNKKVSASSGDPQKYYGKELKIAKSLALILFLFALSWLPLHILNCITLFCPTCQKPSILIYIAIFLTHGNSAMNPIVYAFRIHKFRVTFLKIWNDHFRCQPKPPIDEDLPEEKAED
Briefly: Ability to displace [3H]DPCPX from Adenosine A1 receptor in rat cortical membrane. The format is cell membranes.

A further assay addresses T2, Adenosine receptor A3 (Homo sapiens, UniProt P0DMS8).
T2 sequence (P0DMS8 whole entry): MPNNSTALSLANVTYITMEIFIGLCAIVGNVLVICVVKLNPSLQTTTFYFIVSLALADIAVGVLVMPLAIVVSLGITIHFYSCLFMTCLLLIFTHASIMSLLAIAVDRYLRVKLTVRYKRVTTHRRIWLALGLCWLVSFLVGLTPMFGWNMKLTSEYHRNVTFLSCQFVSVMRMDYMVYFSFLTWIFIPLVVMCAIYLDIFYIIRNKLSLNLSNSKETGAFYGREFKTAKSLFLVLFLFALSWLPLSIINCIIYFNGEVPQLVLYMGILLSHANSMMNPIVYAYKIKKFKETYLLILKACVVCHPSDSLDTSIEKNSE
Kind of assay: biochemical.

For assay [3], the target named is T3, Adenosine receptor A1 (Rattus norvegicus) (UniProt P25099).
T3 sequence (whole entry): T1 sequence (P25099 whole entry)
Kind of assay: Ability to displace [3H]DPCPX from Adenosine A1 receptor in rat cortical membrane at 10e-5 M. Type of assay: cell membranes.

The target in assay [4] is T3, Adenosine receptor A1 (Rattus norvegicus). Kind of assay: Displacement of [3H]DPCPX from Adenosine A1 receptor in rat cortical membrane at 10e-5 M. The format is cell membranes. (In general: Displacement assays read how much labelled ligand stays bound in the presence of the test substance.)
The target of assay [5] is T4, Adenosine receptor A3 (Homo sapiens) (UniProt P0DMS8).
T4 sequence (whole entry): T2 sequence (P0DMS8 whole entry)
Kind of assay: Percent inhibition of forskolin induced (10 uM) cAMP production compared to C1-IB-MECA through Adenosine A3 receptor expressed in CHO cells at 100 uM. Type of assay: functional, cell-based.

Assay [6] has as its target T4, Adenosine receptor A3 (Homo sapiens). Briefly: % inhibition of forskolin induced (10 uM) cAMP production compared to C1-IB-MECA through Adenosine A3 receptor expressed in CHO cells at 30 uM. The format is functional, cell-based.

Adenosine receptor A2a (Rattus norvegicus, UniProt P30543), sequence (P30543 whole entry): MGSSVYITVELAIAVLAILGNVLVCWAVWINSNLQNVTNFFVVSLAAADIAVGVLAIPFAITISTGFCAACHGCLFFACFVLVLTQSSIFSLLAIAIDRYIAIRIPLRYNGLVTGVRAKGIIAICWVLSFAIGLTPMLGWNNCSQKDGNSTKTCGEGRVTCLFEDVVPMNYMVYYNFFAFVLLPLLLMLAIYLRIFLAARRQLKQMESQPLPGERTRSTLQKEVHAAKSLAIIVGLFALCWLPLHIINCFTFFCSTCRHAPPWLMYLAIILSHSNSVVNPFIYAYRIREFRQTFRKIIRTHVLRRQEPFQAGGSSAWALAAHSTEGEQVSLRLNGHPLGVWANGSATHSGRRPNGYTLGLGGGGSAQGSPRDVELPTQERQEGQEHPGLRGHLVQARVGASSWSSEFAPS
Adenosine receptor A2a (Homo sapiens, UniProt P29274), sequence (P29274 whole entry): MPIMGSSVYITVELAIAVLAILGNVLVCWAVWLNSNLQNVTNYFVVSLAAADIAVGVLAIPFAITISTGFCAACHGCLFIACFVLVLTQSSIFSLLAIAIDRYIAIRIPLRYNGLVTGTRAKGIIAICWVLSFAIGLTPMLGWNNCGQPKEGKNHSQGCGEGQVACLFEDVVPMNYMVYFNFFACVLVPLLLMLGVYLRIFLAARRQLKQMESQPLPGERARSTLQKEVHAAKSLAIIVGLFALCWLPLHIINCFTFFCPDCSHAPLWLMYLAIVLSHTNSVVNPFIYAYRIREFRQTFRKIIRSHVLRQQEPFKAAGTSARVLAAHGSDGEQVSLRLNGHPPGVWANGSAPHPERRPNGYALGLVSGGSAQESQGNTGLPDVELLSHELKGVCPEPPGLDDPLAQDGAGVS

For orientation: EC50 means the concentration at which the effect is half-maximal. Higher therefore signals weaker potency. As usually defined, the Ki is a measure of affinity in units of concentration, obtained from inhibition or displacement. Lower therefore signals tighter binding. Turning to `CCCCC#Cc1nc(N)c2ncn([C@@H]3O[C@H](CSC)[C@@H](O)[C@H]3O)c2n1`, the EC50 on Adenosine receptor A2a [1] turned out to be 700 nM. Also, the affinity at Adenosine receptor A2a [2], expressed as Ki, was 60 nM.

On Adenosine receptor A2a [1], `CCCCC#Cc1nc(N)c2ncn([C@@H]3O[C@H](CSC(C)C)[C@@H](O)[C@H]3O)c2n1` registered an EC50 of 3600 nM. The inhibition constant Ki on Adenosine receptor A1 amounted to 1270 nM; on Adenosine receptor A2a [2], 220 nM.

Take `CC(C)C/C=N/Nc1nc(N)c2ncn([C@@H]3O[C@H](CO)[C@@H](O)[C@H]3O)c2n1`: the results for the inhibition constant (Ki) on Adenosine receptor A3 and at Adenosine receptor A2a [2] were 38.3 nM and 20 nM, respectively. On Adenosine receptor A2a [1], the EC50 was 1100 nM. Moreover, the Displacement in assay [3] stood at 18.9%.

Consider `CCCCC#Cc1nc(N)c2ncn([C@@H]3O[C@H](CSCCC)[C@@H](O)[C@H]3O)c2n1`, for which, in assay [4], the Displacement worked out at 46.5%. At Adenosine receptor A2a [1], this compound displayed an EC50 of 800 nM. This compound also registered a Ki on Adenosine receptor A2a [2] of 170 nM.

In turn, `CSC[C@H]1O[C@@H](n2cnc3c(N)nc(I)nc32)[C@H](O)[C@@H]1O` displayed a Ki at Adenosine receptor A2a [2] of 3900 nM.

With `Nc1nc(I)nc2c1ncn2[C@@H]1O[C@H](CO)[C@@H](O)[C@H]1O`, in assay [3], the Displacement was 36.1%.

Take `CCSC[C@H]1O[C@@H](n2cnc3c(N)nc(I)nc32)[C@H](O)[C@@H]1O`: the values for the Ki at Adenosine receptor A1 and at Adenosine receptor A2a [2] were 386 nM and 1200 nM, respectively.

As a reminder, the Emax is the maximal effect, on the per cent scale that the assay sets. `CCCSC[C@H]1O[C@@H](n2cnc3c(N)nc(N/N=C/CC(C)C)nc32)[C@H](O)[C@@H]1O`: the Ki is 697 nM on Adenosine receptor A3 and 1500 nM at Adenosine receptor A2a [2]. A half-maximal response on Adenosine receptor A2a [1] (EC50) required 12900 nM. The compound also yielded an Emax in assay [5] of 16%. In assay [3], this compound had a Displacement of 22%.

In the case of `CC(C)C/C=N/Nc1nc(N)c2ncn([C@@H]3O[C@H](CSC(C)C)[C@@H](O)[C@H]3O)c2n1`, the Displacement in assay [4] amounted to 13%. In addition, the Ki came to 409 nM on Adenosine receptor A3 and 1800 nM at Adenosine receptor A2a [2]. In addition, a half-maximal response on Adenosine receptor A2a [1] (EC50) required 10400 nM. In assay [6], this compound displayed an Emax of 26%.

`CCCSC[C@H]1O[C@@H](n2cnc3c(N)nc(I)nc32)[C@H](O)[C@@H]1O`: the Ki on Adenosine receptor A1 is 1050 nM; at Adenosine receptor A2a [2] it was 440 nM.

As for `CCSC[C@H]1O[C@@H](n2cnc3c(N)nc(N/N=C/CC(C)C)nc32)[C@H](O)[C@@H]1O`, the Ki on Adenosine receptor A3 was 814 nM; at Adenosine receptor A2a [2] it was 500 nM. On Adenosine receptor A2a [1], this compound showed an EC50 of 7500 nM. In assay [5], this compound showed an Emax of 7%. In addition, the Displacement in assay [3] was 21.2%.

Turning to `CC(C)SC[C@H]1O[C@@H](n2cnc3c(N)nc(I)nc32)[C@H](O)[C@@H]1O`, the Ki at Adenosine receptor A2a [2] was 820 nM. For the same compound, the Displacement in assay [3] amounted to 56.2%.

In the case of `CCCCC#Cc1nc(N)c2ncn([C@@H]3O[C@H](CSCC)[C@@H](O)[C@H]3O)c2n1`, on Adenosine receptor A2a [1], the EC50 worked out at 500 nM. Besides, the Ki on Adenosine receptor A1 was determined as 2180 nM; at Adenosine receptor A2a [2] it was 110 nM.

As to `CSC[C@H]1O[C@@H](n2cnc3c(N)nc(N/N=C/CC(C)C)nc32)[C@H](O)[C@@H]1O`, the Ki on Adenosine receptor A3 was found to be 253 nM; at Adenosine receptor A2a [2], 220 nM. Besides, the response at Adenosine receptor A2a [1] was half-maximal at 5000 nM (EC50). Also, the Displacement in assay [3] worked out at 18.9%. Moreover, the Emax in assay [6] is 41%.
